According to US6458802B1, “Antidepressant azaheterocyclymethyl derivatives of 2,3-dihydro-1,4-dioxino [2,3-f]quinoline” (Wyeth, priority 2001, dated 2002):
Structures can show the parent of a compound that is named as a salt. Where two headings read alike, the source gives them in different places.

What was measured:
[1] = molecular target: T1, cloned human 5HT1A receptors (Homo sapiens, UniProt P08908); test: 35S-GTPγS binding assay, antagonist activity at 5HT1A receptors; type: biochemical; conditions: for 5HT1A Function (Imax) / Emax: maximum inhibitory effect in 35S-GTPγS binding versus 8-OH-DPAT; for IC50: 35S-GTPγS binding, reversal of the effects of the standard agonist 8-OH-DPAT, membranes with cloned human 5HT1A receptors, read-out: 5HT1A Function IC50; for Emax: read-out: 5HT1A Function (Imax)
T1 construct: expressed in transfected cells
T1 sequence (P08908 1-422): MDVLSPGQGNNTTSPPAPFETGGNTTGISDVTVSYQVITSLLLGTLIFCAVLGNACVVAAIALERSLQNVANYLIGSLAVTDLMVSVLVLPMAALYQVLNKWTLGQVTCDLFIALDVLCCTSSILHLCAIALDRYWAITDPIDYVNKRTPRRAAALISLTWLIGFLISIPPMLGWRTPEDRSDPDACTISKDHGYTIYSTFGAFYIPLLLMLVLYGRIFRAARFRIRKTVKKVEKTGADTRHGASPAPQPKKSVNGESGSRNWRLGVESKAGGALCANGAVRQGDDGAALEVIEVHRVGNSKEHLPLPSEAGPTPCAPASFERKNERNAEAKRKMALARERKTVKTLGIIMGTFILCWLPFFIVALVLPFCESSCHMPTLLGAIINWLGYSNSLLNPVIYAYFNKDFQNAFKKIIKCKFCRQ
Protocol: Antagonist activity at 5HT1A receptors was established by using a ^35S-GTPγS binding assay similar to that used by Lazareno and Birdsall (Br. J. Pharmacol. 109: 1120, 1993), in which the test compound's ability to affect the binding of 35S-GTPγS to membranes containing cloned human 5HT1A receptors was determined. Agonists produce an increase in binding whereas antagonists produce no increase but rather reverse the effects of the standard agonist 8-OH-DPAT. The test compound's maximum inhibitory effect is represented as the 1max, while its potency is defined by the IC50.

human 5HT1A receptors = molecular target: T2, human 5HT1A receptors (Homo sapiens, UniProt P08908); test: [3H] 8-OH-DPAT displacement from the 5HT1A serotonin receptor (transfected CHO cells); type: binding
T2 construct: expressed in transfected cells; host or cells: CHO cells
T2 sequence (P08908 1-422): T1 sequence (P08908 1-422)
Excerpt: High affinity for the serotonin 5HT1A receptor was established by testing the claimed compound's ability to displace [^3H] 8-OH-DPAT (dipropylamino-tetralin) from the 5HT1A serotonin receptor following a modification of the procedure of Hall et al., J. Neurochem. 44, 1685 (1985) which utilizes CHO cells stably transfected with human 5HT1A receptors.

serotonin transporter = molecular target: T3, serotonin transporter (Rattus norvegicus, UniProt P31652); test: 3H-paroxetine displacement, affinity for the serotonin transporter; type: binding
T3 construct: displace ^3H-paroxetine from male rat frontal cortical membranes; from tissue; host or cells: male rat frontal cortex membranes

[2] = displacement of [3H] 8-OH-DPAT, CHO cells stably transfected with human 5HT1A receptors, read-out: 5HT1A Receptor Affinity KI

T3 sequence (P31652 whole entry): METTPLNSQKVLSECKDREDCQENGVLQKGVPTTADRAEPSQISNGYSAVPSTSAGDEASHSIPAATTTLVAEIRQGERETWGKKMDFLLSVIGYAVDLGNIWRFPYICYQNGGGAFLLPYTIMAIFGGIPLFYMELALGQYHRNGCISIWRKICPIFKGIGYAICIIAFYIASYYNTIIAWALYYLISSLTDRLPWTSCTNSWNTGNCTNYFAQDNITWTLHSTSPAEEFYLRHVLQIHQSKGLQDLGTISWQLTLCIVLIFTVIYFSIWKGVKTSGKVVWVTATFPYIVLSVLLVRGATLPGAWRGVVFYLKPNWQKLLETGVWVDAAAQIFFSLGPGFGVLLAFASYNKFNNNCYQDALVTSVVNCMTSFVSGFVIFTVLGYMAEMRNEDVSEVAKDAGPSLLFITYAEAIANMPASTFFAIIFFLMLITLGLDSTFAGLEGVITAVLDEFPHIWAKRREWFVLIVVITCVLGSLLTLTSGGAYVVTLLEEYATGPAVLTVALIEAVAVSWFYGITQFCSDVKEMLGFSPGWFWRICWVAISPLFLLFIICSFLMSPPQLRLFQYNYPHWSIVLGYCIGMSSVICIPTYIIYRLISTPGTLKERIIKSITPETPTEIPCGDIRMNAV

Molecule: 2-({4-[(6-Chloro-1H-indol-3-yl)methyl]piperidin-1-yl}methyl)-8-methyl-2,3-dihydro[1,4]dioxino[2,3-f]quinoline [Example 20]
- 5HT1A Function (Imax) [1]: (100)

Molecule: 2-({4-[(7-Ethyl-1H-indol-3-yl)methyl]piperidin-1-yl}methyl)-8-methyl-2,3-dihydro[1,4]dioxino[2,3-f]quinoline [Example 19]
- 5HT1A Function (Imax) [1]: (100)

Molecule: NC(=O)c1ccc2[nH]cc(C3=CCN(C[C@H]4COc5ccc6ncccc6c5O4)CC3)c2c1 (as salt: fumarate) (hydrate or solvate) [Example 6, 3-[1-(2,3-Dihydro[1,4]dioxino[2,3-f]qiuinolin-2-ylmethyl)-1,2,3,6-tetrahydropyridin-4-yl]-1H-indole-5-carboxylic Acid Amide]
- melting point: 219 °C

Molecule: Cc1ccc2c3c(ccc2n1)OCC(CN1CC=C(c2c[nH]c4ccc(F)cc24)CC1)O3 (stereo not drawn) (as salt: fumarate) (hydrate or solvate) [Example 11, 2-[4-(5-Fluoro-1H-indol-3-yl)-3,6-dihydro-2H-pyridin-1-ylmethyl]-8-methyl-2,3-dihydro[1,4]dioxino[2,3-f]quinoline]
- melting point: 198 to 199 °C

Molecule: Cc1ccc2c3c(ccc2n1)OCC(CN1CCC(c2c[nH]c4ccccc24)CC1)O3 (stereo not drawn) (as salt: fumarate) (hydrate or solvate) [Example 12, 2-[4-(1H-indol-3-yl)piperidin-1-ylmethyl]-8-methyl-2,3-dihydro[1,4]dioxino[2,3-f]quinoline]
- melting point: 206 °C

Molecule: CCc1ccc2c3c(ccc2n1)OCC(CN1CC=C(c2c[nH]c4ccc(F)cc24)CC1)O3 (stereo not drawn) (as salt: fumarate) (hydrate or solvate) [Example 14, 8-Ethyl-2-[(4-(5-fluoro-1H-indol-3-yl)-3,6-dihydropyridin-1(2H)-yl)methyl]-2,3-dihydro[1,4]dioxino[2,3-f]quinoline]
- melting point: 143 to 144 °C

Molecule: Fc1ccc2[nH]cc(C3=CCN(CC4COc5cc(F)c6ncccc6c5O4)CC3)c2c1 (stereo not drawn) (as salt: fumarate) (hydrate or solvate) [Example 15, 6-Fluoro-2-[(4-(5-fluoro-1H-indol-3-yl)-3,6-dihydropyridin-1(2H)-yl)methyl]-2,3-dihydro[1,4]dioxino[2,3-f]quinoline]
- melting point: 190 °C

Molecule: Nc1ccc2c3c(ccc2n1)OC[C@H](CN1CC=C(c2c[nH]c4ccc(F)cc24)CC1)O3 (as salt: fumarate) (hydrate or solvate) [Example 18, 2-[4-(5-Fluoro-1H-indol-3-yl)-3,6-dihydro-2H-pyridin-1-ylmethyl]-2,3-dihydro[1,4]dioxino[2,3-f]guinolin-8-ylamine]
- melting point: 245 °C

Molecule: Cc1ccc2[nH]cc(C3=CCN(CC4COc5ccc6nc(C)ccc6c5O4)CC3)c2c1 (stereo not drawn) (as salt: fumarate) (hydrate or solvate) [Example 22, 2-[4-(5-Methyl-1H-indol-3-yl)-3,6-dihydro-2H-pyridin-1-ylmethyl]-8-methyl-2,3-dihydro[1,4]dioxino[2,3-f]quinoline]
- melting point: 150 to 155 °C

Molecule: COc1ccc2[nH]cc(C3=CCN(C[C@H]4COc5ccc6ncccc6c5O4)CC3)c2c1 (as salt: fumarate) [Example 1]
- melting point: 170 °C

Molecule: COc1ccc2[nH]cc(C3=CCN(C[C@H]4COc5ccc6ncccc6c5O4)CC3)c2c1 [Example 1]
- Ki (human 5HT1A receptors): 9.29 nM
- IC50 [1]: 322 nM
- Emax [1]: 100%
- Ki (serotonin transporter): 54 nM

Molecule: Fc1ccc2[nH]cc(C3=CCN(C[C@H]4COc5ccc6ncccc6c5O4)CC3)c2c1 [Example 2]
- Ki (human 5HT1A receptors): 9.88 nM
- IC50 [1]: 243 nM
- Emax [1]: 100%
- Ki (serotonin transporter): 2.82 nM

Molecule: Fc1ccc2[nH]cc(CC3CCN(C[C@H]4COc5ccc6ncccc6c5O4)CC3)c2c1 [Example 3]
- Ki (human 5HT1A receptors; [2]): 17.2 nM
- IC50 [1]: 120 nM
- Emax [1]: 90%
- Ki (serotonin transporter; displacement of 3H-paroxetine from male rat frontal cortical membranes, read-out: 5-HT Transporter Affinity KI): 1.2 nM

Molecule: C1=C(c2c[nH]c3ccccc23)CCN(C[C@H]2COc3ccc4ncccc4c3O2)C1 [Example 4, 2-[1,4-(1H-indol-3-yl)-3,6-dihydro-2H-pyridin-1-ylmethyl]-2,3-dihydro[1,4]dioxino[2,3-f]quinoline]
- Ki (human 5HT1A receptors): 4.84 nM
- IC50 [1]: 226 nM
- Emax [1]: 87%
- Ki (serotonin transporter): 3.38 nM

Molecule: N#Cc1ccc2[nH]cc(C3=CCN(CC4COc5ccc6ncccc6c5O4)CC3)c2c1 (stereo not drawn) [Example 5, 3-[1-(2,3-Dihydro[1,4]dioxino[2,3-f]quinolin-2-ylmethyl)-1,2,3,6-tetrahydropyridin-4-yl]-1H-indole-5-carbonitrile]
- Ki (human 5HT1A receptors; [2]): 19.3 nM
- Ki (serotonin transporter): 2.54 nM

Molecule: NC(=O)c1ccc2[nH]cc(C3=CCN(C[C@H]4COc5ccc6ncccc6c5O4)CC3)c2c1 [Example 6, 3-[1-(2,3-Dihydro[1,4]dioxino[2,3-f]qiuinolin-2-ylmethyl)-1,2,3,6-tetrahydropyridin-4-yl]-1H-indole-5-carboxylic Acid Amide]
- Ki (human 5HT1A receptors; [2]): 9.44 nM
- Ki (serotonin transporter): 3.54 nM

Molecule: Cn1cc(C2=CCN(C[C@H]3COc4ccc5ncccc5c4O3)CC2)c2cc(F)ccc21 [Example 7, 2-[4-(5-Fluoro-1-methyl-1H-indol-3-yl)-3,6-dihydro-2H-pyridin-1-ylmethyl]-2,3-dihydro[1,4]dioxino[2,3-f]qiuinoline]
- Ki (human 5HT1A receptors): 14.7 nM
- IC50 [1]: 1080 nM
- Emax [1]: 100%
- Ki (serotonin transporter): 8.5 nM

Molecule: Cc1ccc2c3c(ccc2n1)OCC(CN1CC=C(c2c[nH]c4cc(F)ccc24)CC1)O3 (stereo not drawn) [Example 10, 2-[4-(6-Fluoro-1H-indol-3-yl)-3,6-dihydro-2H-pyridin-1-ylmethyl]-8-methyl-2,3-dihydro[1,4]dioxino[2,3-f]quinoline]
- Ki (human 5HT1A receptors): 6.7 nM
- IC50 [1]: 259 nM
- Emax [1]: 100%
- Ki (serotonin transporter): 8 nM

Molecule: Cc1ccc2c3c(ccc2n1)OCC(CN1CC=C(c2c[nH]c4ccc(F)cc24)CC1)O3 (stereo not drawn) [Example 11, 2-[4-(5-Fluoro-1H-indol-3-yl)-3,6-dihydro-2H-pyridin-1-ylmethyl]-8-methyl-2,3-dihydro[1,4]dioxino[2,3-f]quinoline]
- Ki (human 5HT1A receptors): 13.2 nM
- IC50 [1]: 120 nM
- Emax [1]: 100%
- Ki (serotonin transporter): 5.51 nM

Molecule: Cc1ccc2c3c(ccc2n1)OCC(CN1CCC(c2c[nH]c4ccccc24)CC1)O3 (stereo not drawn) [Example 12, 2-[4-(1H-indol-3-yl)piperidin-1-ylmethyl]-8-methyl-2,3-dihydro[1,4]dioxino[2,3-f]quinoline]
- Ki (human 5HT1A receptors): 9.98 nM
- IC50 [1]: 85.7 nM
- Emax [1]: 100%
- Ki (serotonin transporter): 2.39 nM

Molecule: CCc1ccc2c3c(ccc2n1)OCC(CN1CC=C(c2c[nH]c4ccc(F)cc24)CC1)O3 (stereo not drawn) [Example 14, 8-Ethyl-2-[(4-(5-fluoro-1H-indol-3-yl)-3,6-dihydropyridin-1(2H)-yl)methyl]-2,3-dihydro[1,4]dioxino[2,3-f]quinoline]
- Ki (human 5HT1A receptors): 15.4 nM
- IC50 [1]: 166 nM
- Emax [1]: 100%
- Ki (serotonin transporter): 14 nM

Molecule: Fc1ccc2[nH]cc(C3=CCN(CC4COc5cc(F)c6ncccc6c5O4)CC3)c2c1 (stereo not drawn) [Example 15, 6-Fluoro-2-[(4-(5-fluoro-1H-indol-3-yl)-3,6-dihydropyridin-1(2H)-yl)methyl]-2,3-dihydro[1,4]dioxino[2,3-f]quinoline]
- Ki (human 5HT1A receptors): 36.4 nM
- IC50 [1]: 1030 nM
- Emax [1]: 100%
- Ki (serotonin transporter): 1.5 nM

Molecule: COc1cc2c(c3cccnc13)O[C@@H](CN1CC=C(c3c[nH]c4ccc(F)cc34)CC1)CO2 [Example 17, 2-[4-(5-Fluoro-1H-indol-3-yl)-3,6-dihydro-2H-pyridin-1-ylmethyl]-6-methoxy-2,3-dihydro[1,4]dioxino[2,3-f]qiuinoline]
- Ki (human 5HT1A receptors; [2]): 317 nM
- IC50 [1]: 1410 nM
- Emax [1]: 100%
- Ki (serotonin transporter): 4.74 nM

Molecule: Nc1ccc2c3c(ccc2n1)OC[C@H](CN1CC=C(c2c[nH]c4ccc(F)cc24)CC1)O3 [Example 18, 2-[4-(5-Fluoro-1H-indol-3-yl)-3,6-dihydro-2H-pyridin-1-ylmethyl]-2,3-dihydro[1,4]dioxino[2,3-f]guinolin-8-ylamine]
- Ki (human 5HT1A receptors): 10.9 nM
- IC50 [1]: 84.9 nM
- Emax [1]: 100%
- Ki (serotonin transporter): 0.66 nM

Molecule: Cc1ccc2[nH]cc(C3=CCN(CC4COc5ccc6nc(C)ccc6c5O4)CC3)c2c1 (stereo not drawn) [Example 22, 2-[4-(5-Methyl-1H-indol-3-yl)-3,6-dihydro-2H-pyridin-1-ylmethyl]-8-methyl-2,3-dihydro[1,4]dioxino[2,3-f]quinoline]
- Ki (human 5HT1A receptors): 34.7 nM
- IC50 [1]: 503 nM
- Emax [1]: 100%
- Ki (serotonin transporter): 59 nM
